The record followed here is PMC6478789, “A chemical toolbox for the study of bromodomains and epigenetic signaling” (Nature Communications, 2019).

One assay has as its target T1, BRD9 (Homo sapiens, UniProt Q9H8M2).
T1 construct: purchased DiscoverX BROMOscan (bromodomains); SGC in-house methyltransferase panel
Put plainly: Temperature shift assay (bromodomains). Format: binding. Conditions: compared to ITC KD. On the procedure:
(§1) Temperature shift assays have been described by Fedorov et al.[46]. Recombinant protein domains (bromodomain or kinases) at a concentration of 2 μM in 10 mM HEPES, pH 7.5, and 500 mM NaCl were mixed with 10 μM of chemical probes. Temperature-dependent protein unfolding profiles were measured using a Real-Time PCR Mx3005p machine (Stratagene).

The target of the next assay is T2, CBP (Homo sapiens, UniProt Q92793).
T2 construct: Recombinant protein domains (bromodomain or kinases) at a concentration of 2 μM
The assay is described as follows: Temperature shift assay (bromodomains). The class given is binding. Conditions: compared to ITC KD. On the procedure:
as §1

Another assay deals with T3, TAF1L(2) (Homo sapiens, UniProt Q8IZX4).
T3 construct: purchased DiscoverX BROMOscan (bromodomains); SGC in-house methyltransferase panel
Put plainly: Temperature shift assay (bromodomains). The class given is binding. Conditions: compared to ITC KD. As for the experimental part: as §1

The subject of a further assay is C2C12 myoblast cells. The assay is described as follows: Gene-expression analysis (microarray). The class given is cell-based, mouse. Conditions: 12 h; 500 nM (JQ1, LP-99), 2 μM (GSK2801, BAZ2-ICR, BSP). On the procedure:
Total RNA was extracted using the PureLink^TM RNA mini kit (Thermo Fisher Scientific, 12183018A) as per the manufacturer’s protocol.
RNA samples were processed for oligonucleotide microarray profiling utilizing the Affymetrix Clariom^TM S Assay HT mouse. Quality controls were carried out in R (v.3.5.1) and Bioconductor[71] (v.3.7) using the arrayQualityMetrics package (v.3.36.0) taking into account array intensity distributions, distance between arrays, and variance mean dependence. Principal component analysis was used to decide which arrays to process together. After quality control, arrays were corrected for background, normalized, and log2-transformed together using the rma function of the oligo package (v.1.44)[73] in R/Bioconductor. Probes with small variance across samples were filtered out using the genefilter (v.1.62) package, employing the nsFilter function and an interquartile range cut-off of 0.28 (or >log(1.2), determined by the midpoint of the shortest interval containing half of the data). This reduced the number of probes of the Clariom^TM S array from 29,129 to 14,538.
Differential expression analysis was conducted using the limma package (v.3.36.2)[74], employing a linear model followed by empirical Bayesian analysis to determine differential expression between not-treated and treated samples.

The next assay concerns the target T4, ATAD2A (Homo sapiens, UniProt Q6PL18).
T4 sequence (Q6PL18 980-1092 limits assumed): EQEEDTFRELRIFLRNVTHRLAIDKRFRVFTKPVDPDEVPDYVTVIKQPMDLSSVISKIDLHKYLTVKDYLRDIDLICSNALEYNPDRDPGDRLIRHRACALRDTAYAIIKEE
The assay is described as follows: BROMOscan ligand-binding assay. The conditions noted are these: KD, BROMOscan Gene Symbol ATAD2A.

For a further assay, the target named is T5, ATAD2B (Homo sapiens, UniProt Q9ULI0).
T5 sequence (Q9ULI0 951-1066 limits assumed): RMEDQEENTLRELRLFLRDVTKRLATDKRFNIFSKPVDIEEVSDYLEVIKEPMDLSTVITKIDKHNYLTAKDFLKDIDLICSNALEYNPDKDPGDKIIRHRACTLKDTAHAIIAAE
The assay is described as follows: BROMOscan ligand-binding assay. Conditions: KD, BROMOscan Gene Symbol ATAD2B.

A further assay addresses T6, BAZ1B (Homo sapiens, UniProt Q9UIG0).
T6 sequence (Q9UIG0 1339-1443 limits assumed): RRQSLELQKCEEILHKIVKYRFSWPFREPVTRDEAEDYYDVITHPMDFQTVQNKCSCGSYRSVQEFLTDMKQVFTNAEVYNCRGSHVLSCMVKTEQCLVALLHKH
Put plainly: BROMOscan ligand-binding assay. Conditions: KD, BROMOscan Gene Symbol BAZ1B.

The next assay addresses T7, BAZ2B (Homo sapiens, UniProt Q9UIF8).
T7 sequence (Q9UIF8 2060-2164 limits assumed): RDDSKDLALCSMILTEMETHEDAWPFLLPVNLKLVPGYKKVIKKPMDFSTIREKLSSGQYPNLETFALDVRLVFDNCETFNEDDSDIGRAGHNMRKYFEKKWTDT
The assay is described as follows: BROMOscan ligand-binding assay. The conditions noted are these: KD, BROMOscan Gene Symbol BAZ2B.

A further assay addresses BRD8(1) (Homo sapiens, UniProt Q9H0E9). Put plainly: BROMOscan ligand-binding assay. The conditions noted are these: KD, BROMOscan Gene Symbol BRD8(1).
The target in another assay is BRD8(2) (Homo sapiens, UniProt Q9H0E9). The assay is described as follows: BROMOscan ligand-binding assay. The conditions noted are these: KD, BROMOscan Gene Symbol BRD8(2).
The next assay deals with T8, BRPF1 (Homo sapiens, UniProt P55201).
T8 sequence (P55201 628-732 limits assumed): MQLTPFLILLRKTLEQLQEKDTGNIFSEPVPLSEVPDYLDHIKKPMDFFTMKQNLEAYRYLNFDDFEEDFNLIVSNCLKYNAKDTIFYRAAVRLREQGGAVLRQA
The assay is described as follows: BROMOscan ligand-binding assay. Conditions: KD, BROMOscan Gene Symbol BRPF1.

The target in a further assay is T9, EP300 (Homo sapiens, UniProt Q09472).
T9 sequence (Q09472 1049-1156 limits assumed): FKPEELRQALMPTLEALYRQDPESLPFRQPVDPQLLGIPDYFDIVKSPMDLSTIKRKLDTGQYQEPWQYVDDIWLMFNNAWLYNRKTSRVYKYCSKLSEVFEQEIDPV
The assay is described as follows: BROMOscan ligand-binding assay. The conditions noted are these: KD, BROMOscan Gene Symbol EP300.

The target in another assay is T10, GCN5L2 (Homo sapiens, UniProt Q92830).
T10 sequence (Q92830 728-832 limits assumed): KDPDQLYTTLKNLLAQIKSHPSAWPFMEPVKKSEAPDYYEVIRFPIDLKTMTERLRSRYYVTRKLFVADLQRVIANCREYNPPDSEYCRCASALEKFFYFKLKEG
Put plainly: BROMOscan ligand-binding assay. Conditions: KD, BROMOscan Gene Symbol GCN5L2.

For a further assay, the target named is SMARCA2 (Homo sapiens, UniProt P51531). Put plainly: BROMOscan ligand-binding assay. The conditions noted are these: KD, BROMOscan Gene Symbol SMARCA2.
Another assay addresses SMARCA2(iso.A) (Homo sapiens, UniProt P51531). Put plainly: BROMOscan ligand-binding assay. Conditions: KD, BROMOscan Gene Symbol SMARCA2(iso.A).
For a further assay, the target named is T11, TRIM33(PHD,BRD) (Homo sapiens, UniProt Q9UPN9).
T11 sequence (Q9UPN9 882-1087 limits assumed): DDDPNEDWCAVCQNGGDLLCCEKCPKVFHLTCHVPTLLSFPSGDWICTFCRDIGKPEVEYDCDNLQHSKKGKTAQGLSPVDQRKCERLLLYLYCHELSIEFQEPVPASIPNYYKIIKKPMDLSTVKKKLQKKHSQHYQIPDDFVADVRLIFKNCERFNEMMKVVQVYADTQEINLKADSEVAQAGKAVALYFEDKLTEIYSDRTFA
The assay is described as follows: BROMOscan ligand-binding assay.

The target of the next assay is WDR9(2) (Homo sapiens, UniProt Q9NSI6). Put plainly: BROMOscan ligand-binding assay.
Setting [1] is: KD (BROMOscan), sheet prints no unit (nM).

WDR9(2), sequence (Q9NSI6 1313-1418 limits assumed): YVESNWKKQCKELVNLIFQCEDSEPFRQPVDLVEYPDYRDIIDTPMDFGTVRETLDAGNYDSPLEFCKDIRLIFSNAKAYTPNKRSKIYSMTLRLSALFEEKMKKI
BRD8(1), sequence (Q9H0E9 706-811 limits assumed): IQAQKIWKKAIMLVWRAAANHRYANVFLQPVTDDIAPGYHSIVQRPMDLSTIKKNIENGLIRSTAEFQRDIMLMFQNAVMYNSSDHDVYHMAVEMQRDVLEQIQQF
SMARCA2, sequence (P51531 1-1572 isoform P51531-2): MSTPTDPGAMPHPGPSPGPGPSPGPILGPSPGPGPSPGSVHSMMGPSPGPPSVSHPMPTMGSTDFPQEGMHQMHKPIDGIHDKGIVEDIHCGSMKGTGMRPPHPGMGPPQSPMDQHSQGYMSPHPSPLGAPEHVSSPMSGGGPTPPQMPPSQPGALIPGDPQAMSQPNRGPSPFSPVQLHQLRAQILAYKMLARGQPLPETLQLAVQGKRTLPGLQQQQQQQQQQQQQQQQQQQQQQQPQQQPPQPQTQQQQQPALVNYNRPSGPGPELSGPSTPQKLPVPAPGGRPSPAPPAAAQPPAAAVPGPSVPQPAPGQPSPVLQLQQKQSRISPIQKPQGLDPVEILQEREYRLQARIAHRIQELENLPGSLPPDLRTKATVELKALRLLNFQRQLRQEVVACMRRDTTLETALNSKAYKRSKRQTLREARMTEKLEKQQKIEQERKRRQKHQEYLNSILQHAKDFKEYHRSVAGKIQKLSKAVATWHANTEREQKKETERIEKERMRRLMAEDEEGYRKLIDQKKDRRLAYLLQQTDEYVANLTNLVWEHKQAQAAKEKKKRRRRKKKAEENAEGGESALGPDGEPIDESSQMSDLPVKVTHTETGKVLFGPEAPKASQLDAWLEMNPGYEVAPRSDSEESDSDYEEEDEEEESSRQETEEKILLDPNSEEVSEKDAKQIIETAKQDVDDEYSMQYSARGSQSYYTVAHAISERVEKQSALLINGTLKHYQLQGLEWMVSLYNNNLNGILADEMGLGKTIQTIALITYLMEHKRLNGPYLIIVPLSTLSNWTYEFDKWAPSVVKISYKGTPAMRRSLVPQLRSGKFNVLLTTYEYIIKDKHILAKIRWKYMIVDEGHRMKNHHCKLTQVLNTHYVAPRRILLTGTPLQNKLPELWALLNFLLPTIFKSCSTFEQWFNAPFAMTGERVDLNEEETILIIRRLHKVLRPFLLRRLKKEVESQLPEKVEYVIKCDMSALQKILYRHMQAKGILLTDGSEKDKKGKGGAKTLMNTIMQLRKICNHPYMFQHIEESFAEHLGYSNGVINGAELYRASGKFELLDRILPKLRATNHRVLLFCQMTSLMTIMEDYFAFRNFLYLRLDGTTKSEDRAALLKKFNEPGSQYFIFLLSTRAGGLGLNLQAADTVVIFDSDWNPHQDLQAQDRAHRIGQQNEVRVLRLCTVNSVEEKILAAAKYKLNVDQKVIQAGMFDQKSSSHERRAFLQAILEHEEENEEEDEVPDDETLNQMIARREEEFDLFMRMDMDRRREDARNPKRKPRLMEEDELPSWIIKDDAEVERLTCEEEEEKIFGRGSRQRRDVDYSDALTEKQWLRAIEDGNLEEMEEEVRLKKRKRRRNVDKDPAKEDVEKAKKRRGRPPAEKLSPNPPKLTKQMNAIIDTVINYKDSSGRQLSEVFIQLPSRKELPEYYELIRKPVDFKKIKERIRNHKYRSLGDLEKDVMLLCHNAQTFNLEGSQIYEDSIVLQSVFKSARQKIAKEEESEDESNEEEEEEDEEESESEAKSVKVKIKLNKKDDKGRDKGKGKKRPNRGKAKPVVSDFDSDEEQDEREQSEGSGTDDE
SMARCA2(iso.A), sequence (P51531 1378-1506 limits assumed): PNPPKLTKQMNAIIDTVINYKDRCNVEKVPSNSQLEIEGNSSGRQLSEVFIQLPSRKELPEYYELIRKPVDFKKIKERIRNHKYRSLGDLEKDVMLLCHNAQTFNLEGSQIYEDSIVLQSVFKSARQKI
BRD8(2), sequence (Q9H0E9 1099-1207 limits assumed): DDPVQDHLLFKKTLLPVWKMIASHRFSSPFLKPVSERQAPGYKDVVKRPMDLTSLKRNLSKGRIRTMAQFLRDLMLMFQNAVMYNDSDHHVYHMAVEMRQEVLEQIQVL
T2 sequence (Q92793 1085-1192 limits assumed): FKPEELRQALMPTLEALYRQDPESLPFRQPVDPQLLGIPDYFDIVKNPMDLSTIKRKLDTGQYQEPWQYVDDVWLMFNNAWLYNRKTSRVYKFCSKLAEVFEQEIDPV
T3 sequence (Q8IZX4 1523-1654 limits assumed): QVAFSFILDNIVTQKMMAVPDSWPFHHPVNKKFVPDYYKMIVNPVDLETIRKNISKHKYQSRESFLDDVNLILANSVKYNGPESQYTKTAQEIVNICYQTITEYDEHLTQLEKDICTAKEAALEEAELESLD
T1 sequence (Q9H8M2 134-239): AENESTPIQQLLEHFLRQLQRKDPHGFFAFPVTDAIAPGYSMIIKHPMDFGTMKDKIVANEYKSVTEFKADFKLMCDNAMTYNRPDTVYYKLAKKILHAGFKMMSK
Source text for ATAD2A: (§2) BROMOscan is a binding assay based on the well-known KINOMEscan technology. This assay measures the binding of a DNA-tagged bromodomain to an immobilized BRD ligand. If an inhibitor is present, it will compete with the bromodomain binding to the immobilized ligand, resulting in reduction of a quantitative PCR (qPCR) signal in a dose-dependent manner.
Source text for ATAD2B: as §2
Source text for BAZ1B: as §2
Source text for BAZ2B: as §2
Source text for BRD8(1): as §2
Source text for BRD8(2): as §2
Source text for BRPF1: as §2
Source text for EP300: as §2
Source text for GCN5L2: as §2
Source text for SMARCA2(iso.A): as §2
Source text for TRIM33(PHD,BRD): as §2
Source text for WDR9(2): as §2

On to `CCOC(=O)Nc1cc(-c2ccc(C)c(NS(C)(=O)=O)c2)nn2c(C)nnc12` [Bromosporine], for which the ΔTm result on BRD9 is reported as “only modest ΔTm”; on CBP, “relatively large ΔTm”; on TAF1L(2), “only modest ΔTm”. Further, the “changes in gene-expression levels” value in the assay with C2C12 myoblast cells is given as “significant changes in gene-expression levels”. For the same molecule, the Kd at ATAD2A came out at 62 µM; on ATAD2B, 30 µM; on BAZ1B it was 38 µM; on BAZ2B, 9.1 µM; at BRD8(1) it was 28 µM; on BRD8(2), 40 µM. The Kd on BRPF1 was 0.6 µM; at EP300, 1.6 µM; at GCN5L2, 12 µM; on SMARCA2, 4.6 µM; at SMARCA2(iso.A) it was 6.2 µM; on TRIM33(PHD,BRD) (setting [1]) it was more than 30000 nM. In addition, the Kd on TRIM33(PHD,BRD) (KD, BROMOscan Gene Symbol TRIM33(PHD,Bromo.)) is more than 50000 nM; at WDR9(2) (setting [1]), more than 30000 nM; at WDR9(2) (KD, BROMOscan Gene Symbol WDR9(2)) it was more than 50000 nM.
